We go through 40 compounds from patent publication US20240360114A1 (SIRONAX LTD., priority 2021, published 2024).

pEC50: −log10 of the molar value.

The subject of the first test is HT-1080 cells. In words: HT-1080 cell viability assay (ferroptosis induced by RSL3, Cell Titer-Glo). The class given is cell-based. Conditions: Homo sapiens, HT-1080, 20 h, ferroptosis inducer RSL3, 20 hours, ferroptosis inhibitory activity, Table 2. The procedure:
Example 2. Determination of EC50 Values in HT-1080 Cell Viability Assay
HT-1080 (ATCC, CCL-121) cells (6000 in 100 μl) were seeded in 96-well plates (Corning) and cultured in a 37° C. incubator with a humidified atmosphere of 5% CO2 for overnight. Cells were then treated with ferroptosis inducer RSL3 (TargetMol) and a 3-fold, 10-point serial dilution series of compounds with 1.1 μM as the highest concentration, for 20 hours. Cell viability was assessed using the Cell Titer-Glo Kit (Promega). The luminescence intensity was measured with a microplate reader (Envision, PerkinElmer), and cell viability was calculated by normalizing the data to untreated controls. The EC50 values of the compounds (e.g., Compounds 1-573 and 574-661) were calculated in GraphPad Prism (GraphPad Software, Inc., San Diego, CA, USA). The curves were fitted using a non-linear regression model with a sigmoidal dose response.
In general terms: ATP-based viability assays read luminescence as a measure of living cells.
In turn, `CC1(C)CCC(c2ccc(NC3CCC(NC(=O)[C@H]4CNC(=O)N4)C3)cc2)CC1` (mixture of isomers) [Compound 155] showed a negative-log EC50 (pEC50) of 7.00 to 10.00. On the same count and under the same terms, under `NC1CCC(Nc2ncc(N3CCC(C(F)(F)F)CC3)cn2)CC1` (single isomer, unassigned) [Compound 64A] stands 5.00 to 6.00; under `Cc1nc(N2CCC(C(F)(F)F)CC2)ncc1NC1CCC(N)CC1` (single isomer, unassigned) [Compound 65A, N1-(4-methyl-2-(4-(trifluoromethyl)piperidin-1-yl)pyrimidin-5-yl)cyclohexane-1,4-diamine], 7.00 to 10.00. On the same count and under the same terms, under `CN(C)C1CCC(NC(=O)C2CCC(Nc3ccc(C4CCC(C)(C)CC4)cc3)CC2)CC1` (single isomer, unassigned) [Compound 76A, (4-(dimethylamino)cyclohexyl)-4-((4-(4,4-dimethylcyclohexyl)phenyl)amino)cyclohexane-1-carboxamide] stands 7.00 to 10.00; under `CCC(CC)c1ccc(NC2CCC(CN)CC2)cc1` (single isomer, unassigned) [Compound 81A, N-(4-(aminomethyl)cyclohexyl)-4-(pentan-3-yl)aniline], 6.00 to 7.00; under `NCC1CCC(Nc2ccc(C3CCCCC3)cc2)CC1` (single isomer, unassigned) [Compound 82A, N-(4-(aminomethyl)cyclohexyl)-4-cyclohexylaniline], 7.00 to 10.00. In turn, `CN(C)C1CCC(Nc2ccc(C3CCC(C)(C)CC3)cc2)CC1` (single isomer, unassigned) [Compound 91A, N1-(4-(4,4-dimethylcyclohexyl)phenyl)-N4,N4-dimethylcyclohexane-1,4-diamine] gave a pEC50 of 7.00 to 10.00. The same measure, in the same setting: under `CN(C)CC1CCC(Nc2ccc(C3CCC(C)(C)CC3)cc2)CC1` (single isomer, unassigned) [Compound 97A, N-(4-((dimethylamino)methyl)cyclohexyl)-4-(4,4-dimethylcyclohexyl)aniline] stands 7.00 to 10.00; under `CC1(C)CCC(c2ccc(NC3CCC(CNC(=O)C4CNC(=O)C4)CC3)cc2)CC1` (single isomer, unassigned) [Compound 106A], 7.00 to 10.00. Still for that read-out and setting: as for `CC1(C)CCC(c2ccc(NC3CCC(CNC(=O)[C@@H]4CNC(=O)N4)CC3)cc2)CC1` (single isomer, unassigned) [Compound 107A], the figure is 7.00 to 10.00; as for `CC(C)(C)c1ccc(NC2CCC(NC(=O)C3CNC(=O)C3)CC2)cc1` (single isomer, unassigned) [Compound 114A, N-(4-((4-(tert-butyl)phenyl)amino)cyclohexyl)-5-oxopyrrolidine-3-carboxamide], 6.00 to 7.00; as for `CC(C)(C)c1ccc(NC2CCC(NC(=O)[C@H]3CNC(=O)N3)CC2)cc1` (single isomer, unassigned) [Compound 115A], 6.00 to 7.00. On the same count and under the same terms, under `O=C1NC[C@H](C(=O)NCC2CCC(Nc3ccc(C4CCCCC4)cc3)CC2)N1` (single isomer, unassigned) [Compound 117A] stands 7.00 to 10.00; under `CC1(C)CCC(c2ccc(NC3CCC(N)CC3)cc2)CC1` (single isomer, unassigned) [Compound 120A, N1-(4-(4,4-dimethylcyclohexyl)phenyl)cyclohexane-1,4-diamine], 7.00 to 10.00; under `CC1(C)CCC(c2ccc(NC3CCC(N)C3)cc2)CC1` (single isomer, unassigned) [Compound 121A, N1-(4-(4,4-dimethylcyclohexyl)phenyl)cyclopentane-1,3-diamine], 7.00 to 10.00. For `CCCc1ccc(NC2CCC(N)CC2)cc1` (single isomer, unassigned) [Compound 135A, N1-(4-propylphenyl)cyclohexane-1,4-diamine], the pEC50 is 6.00 to 7.00. On the same count and under the same terms, as for `NC1CCC(Nc2ccc(C3CCCC3)cc2)CC1` (single isomer, unassigned) [Compound 139A, N1-(4-cyclopentylphenyl)cyclohexane-1,4-diamine], the figure is 7.00 to 10.00.

`CCCCOc1ccc(NC2CCC(N)CC2)cc1` (single isomer, unassigned) [Compound 142A, N1-(4-butoxyphenyl)cyclohexane-1,4-diamine] had a pEC50 of 7.00 to 10.00.

`CC(C)(C)c1ccc(NC2CCC(CNC(=O)[C@H]3CNC(=O)N3)CC2)cc1` (single isomer, unassigned) [Compound 143A] gave a pEC50 of 6.00 to 7.00. For `CC(C)(C)c1ccc(NC2CCC(CNC(=O)C3CNC(=O)C3)CC2)cc1` (single isomer, unassigned) [Compound 144A, N-((4-((4-(tert-butyl)phenyl)amino)cyclohexyl)methyl)-5-oxopyrrolidine-3-carboxamide], the pEC50 is 6.00 to 7.00.

Regarding `CC1(C)CCC(c2ccc(NC3CCC(C(N)=O)C3)cc2)CC1` (single isomer, unassigned) [Compound 146A, 3-((4-(4,4-dimethylcyclohexyl)phenyl)amino)cyclopentane-1-carboxamide], the pEC50 was 7.00 to 10.00. The same measure, in the same setting: as for `CC1(C)CCC(c2ccc(NC3CCC(CNC(=O)[C@H]4CC(=O)NC(=O)N4)CC3)cc2)CC1` (single isomer, unassigned) [Compound 148A], the figure is 7.00 to 10.00; as for `CC(C)(C)c1ccc(NC2CCCC(N)C2)cc1` (single isomer, unassigned) [Compound 149A, N1-(4-(tert-butyl)phenyl)cyclohexane-1,3-diamine], 6.00 to 7.00; as for `CC(C)(C)c1cccc(NC2CCC(N)CC2)c1` (single isomer, unassigned) [Compound 153A, N1-(3-(tert-butyl)phenyl)cyclohexane-1,4-diamine], 6.00 to 7.00.

In turn, `CC1(C)CCC(c2ccc(NC3CCC(NC(=O)[C@H]4CNC(=O)N4)CC3)cc2)CC1` (single isomer, unassigned) [Compound 156A] had a pEC50 of 7.00 to 10.00. Same read-out and setting: as for `CC(=O)NC1CCC(Nc2ccc(C3CCC(C)(C)CC3)cc2)CC1` (single isomer, unassigned) [Compound 157A, N-(4-((4-(4,4-dimethylcyclohexyl)phenyl)amino)cyclohexyl)acetamide], the figure is 7.00 to 10.00; as for `Cc1cc(NC2CCC(N)CC2)cc(C)c1C` (single isomer, unassigned) [Compound 182A, N1-(3,4,5-trimethylphenyl)cyclohexane-1,4-diamine], 6.00 to 7.00. The same measure, in the same setting: under `CC(C)(C)c1ccc(NC2CCC(N)CC2)c(Cl)c1` (single isomer, unassigned) [Compound 183A, N1-(4-(tert-butyl)-2-chlorophenyl)cyclohexane-1,4-diamine] stands 5.00 to 6.00; under `NC1CCC(Nc2cccc3c2CCC3)CC1` (single isomer, unassigned) [Compound 191A, N1-(2,3-dihydro-1H-inden-4-yl)cyclohexane-1,4-diamine], 5.00 to 6.00. `CN(C)C1CCC(Nc2ccc(C(C)(C)C)cc2)CC1` (single isomer, unassigned) [Compound 193A, N1-(4-(tert-butyl)phenyl)-N4,N4-dimethylcyclohexane-1,4-diamine]: the pEC50 is 6.00 to 7.00. Consider `CC(C)(C)c1ccc(NC2CCC(CCN)CC2)cc1` (single isomer, unassigned) [Compound 200A, N-(4-(2-aminoethyl)cyclohexyl)-4-(tert-butyl)aniline], for which the pEC50 was 7.00 to 10.00. In the case of `CC1(C)CCC(c2ccc(NC3CCC(O)CC3)cc2)CC1` (single isomer, unassigned) [Compound 205A, 4-((4-(4,4-dimethylcyclohexyl)phenyl)amino)cyclohexan-1-ol], the pEC50 was 7.00 to 10.00. In the case of `CC(C)(C)c1ccc(NC2CCC(N)(CO)CC2)cc1` (single isomer, unassigned) [Compound 213A, (1-amino-4-((4-(tert-butyl)phenyl)amino)cyclohexyl)methanol], the pEC50 is 6.00 to 7.00.

The compound `CC(=O)NC1CCC(Nc2ccc(C(C)(C)C)cc2)CC1` (single isomer, unassigned) [Compound 216A, N-(4-((4-(tert-butyl)phenyl)amino)cyclohexyl)acetamide] gave a pEC50 of 6.00 to 7.00. Same read-out and setting: under `CC1(C)CCC(c2ccc(NC3CC(O)C3)cc2)CC1` (single isomer, unassigned) [Compound 228A, 3-((4-(4,4-dimethylcyclohexyl)phenyl)amino)cyclobutan-1-ol] stands 7.00 to 10.00. In the case of `CC1(N)CCC(Nc2ccc(C(C)(C)C)cc2)CC1` (single isomer, unassigned) [Compound 231A, N1-(4-(tert-butyl)phenyl)-4-methylcyclohexane-1,4-diamine], the pEC50 is 7.00 to 10.00.

The same test, now with this note: ferroptosis inducer RSL3, 20 hours, ferroptosis inhibitory activity, Table 2.
As to `NCC1CCC(Nc2ccccc2)CC1` (single isomer, unassigned) [Compound 92A, N-(4-(aminomethyl)cyclohexyl)aniline], the pEC50 was 5.00 to 6.00. Same read-out and setting: under `NCC1CCC(Nc2ccccc2)CC1` (single isomer, unassigned) [Compound 92B, N-(4-(aminomethyl)cyclohexyl)aniline] stands 6.00 to 7.00; under `CC1(C)CCC(c2ccc(NC3CCC(C(N)=O)CC3)cc2)CC1` (single isomer, unassigned) [Compound 159A, 4-((4-(4,4-dimethylcyclohexyl)phenyl)amino)cyclohexane-1-carboxamide], 7.00 to 10.00; under `CC1(C)CCC(c2ccc(NC3CCC(C(N)=O)CC3)cc2)CC1` (single isomer, unassigned) [Compound 159B, 4-((4-(4,4-dimethylcyclohexyl)phenyl)amino)cyclohexane-1-carboxamide], 6.00 to 7.00.

For orientation: pEC50 means −log10 of the EC50, conventionally taken in molar units. A lower pEC50 goes with a large EC50.
